Measurements taken from US7407988B2, “Carbamic acid compounds comprising a sulfonamide linkage as HDAC inhibitors” (Topotarget UK Limited, priority 2000, dated 2008).
Read-outs that look alike come from different tables or passages of the source.

Columns and labels:
JURKAT human T-cell line = assay: Secondary assay: cell proliferation WST-1, Jurkat; format: cell-based; settings: Table 2, 48 h, read-out: Cell Proliferation Inhibition WST-1 (IC50 unless otherwise specified) Jurkat
[1] = system: K11 HPV E7 transformed human keratinocyte line; assay: Secondary assay: cell proliferation WST-1, K11; format: cell-based; settings: Table 2, 48 h, read-out: Cell Proliferation Inhibition WST-1 (IC50 unless otherwise specified) K11
[2] = system: NHEK-Ad primary human adult keratinocyte line; assay: Secondary assay: cell proliferation WST-1, NHEK-Ad; format: cell-based; settings: Table 2, NHEK-AD, 48 h, read-out: Cell Proliferation Inhibition WST-1 (IC50 unless otherwise specified) NHEK-AD
HeLa cells = assay: Secondary assay: cell proliferation WST-1, HeLa; format: cell-based; settings: Homo sapiens, Table 2, 48 h, read-out: Cell Proliferation Inhibition WST-1 (IC50 unless otherwise specified) HeLa
HDAC (HeLa cell extract) = assay: Primary assay: deacetylase activity, HeLa cell extract as source of HDAC; format: biochemical, human
Source text: Briefly, this assay relies on the release of radioactive acetate from a radioactively labelled histone fragment by the action of HDAC enzyme. Test compounds, which inhibit HDAC, reduce the yield of radioactive acetate. Signal (e.g., scintillation counts) measured in the presence and absence of a test compound provide an indication of that compound's ability to inhibit HDAC activity. Decreased activity indicates increased inhibition by the test compound.
The histone fragment was an N-terminal sequence from histone H4, and it was labelled with radioactively labelled acetyl groups using tritiated acetylcoenzyme A (coA) in conjunction with an enzyme which is the histone acetyltransferase domain of the transcriptional coactivator p300. […] The acetylated peptide was then separated from free acetyl coA by size exclusion chromatography on Sephadex G-15 (Sigma G-15-120), using distilled H2O as the mobile phase.
After purification of the radiolabelled histone fragment, it was incubated with a source of HDAC (e.g., an extract of HeLa cells (a rich source of HDAC), recombinantly produced HDAC1 or HDAC2) and any released acetate was extracted into an organic phase and quantitatively determined using scintillation counting. By including a test compound with the source of HDAC, that compound's ability to inhibit the HDAC was determined.
Two cell volumes of extraction buffer were used, and particulate material was centrifuged out (20800 g, 4° C., 10 min). The supernatant extract having deacetylase activity was aliquotted and frozen for storage.
A source of HDAC (e.g., 2 μL of crude HeLa extract, 5 μL of HDAC1 or HDAC2; in elution buffer, as above) was incubated with 3 μL of radioactively labelled peptide along with appropriate dilutions of candidate compounds (1.5 μL) in a total volume of 150 μL of buffer (20 mM Tris pH 7.4, 10% glycerol). The reaction was carried out at 37° C. for one hour, after which the reaction was stopped by adding 20 μL of 1 M HCl/0.4 M sodium acetate. […] Radioactivity was measured using a Tri-Carb 21 00TR Liquid Scintillation Analyzer (Packard).
Percent activity (% activity) for each test compound was calculated as: % activity={(S^C−B)/(S°−B)}×100 wherein S^C denotes signal measured in the presence of enzyme and the compound being tested, S° denotes signal measured in the presence of enzyme but in the absence of the compound being tested, and B denotes the background signal measured in the absence of both enzyme and compound being tested.

[3] = Table 1, read-out: HDAC Inhibition (IC50 unless otherwise specified) HeLa
[4] = comparative tables, HDAC inhibition, read-out: HeLa IC50

SMILES	IC50 (JURKAT human T-cell line) [nM]	IC50 [1] [nM]	IC50 [2] [nM]	IC50 (HeLa cells) [nM]	IC50 (JURKAT human T-cell line; Homo sapiens) [nM]	IC50 ([1]; Homo sapiens, Keratinocyte) [nM]	IC50 ([2]; Homo sapiens, Keratinocyte) [nM]	IC50 (HDAC (HeLa cell extract); [3]) [nM]	melting point	IC50 (HDAC (HeLa cell extract); [4]) [nM]
Nc1ccccc1NC(=O)c1ccc(CNC(=O)OCc2cccnc2)cc1 [MS-275, reference compound]	365	9160	3100	–	–	–	–	–	–	–
O=C(/C=C/c1cccc(S(=O)(=O)Nc2ccccc2)c1)NO [PX105684, N-Hydroxy-3-(3-phenylsulfamoylphenyl)acrylamide]	–	–	–	2200	200	2400	1500	–	–	–
O=C(CCCCCCCS(=O)(=O)Nc1ccccc1)NO [PX117245]	–	–	–	310	1100	–	520	16	87 to 88 °C	–
O=C(/C=C/c1cccc(NS(=O)(=O)/C=C/c2ccccc2)c1)NO [PX117446, N-Hydroxy-3-{3-[(E)-2-phenylethenesulfonylamino]phenyl}acrylamide]	–	–	–	6000	430	3700	–	18	171 °C	18
O=C(/C=C/C#Cc1ccc(S(=O)(=O)Nc2ccccc2)cc1)NO [PX117453, E-5-(4-Phenylsulfamoylphenyl)pent-2-en-4-ynoic acid hydroxyamide]	–	–	–	5700	1100	4200	–	45	161 to 163 °C	45
O=C(/C=C/c1cccc(S(=O)(=O)NCc2ccco2)c1)NO [PX117710, 3-{3-[(Furan-2-ylmethyl)-sulfamoyl]-phenyl}-N-hydroxyacrylamide]	–	–	–	5000	420	4000	–	125	165 °C	–
COc1cccc(NS(=O)(=O)c2cccc(/C=C/C(=O)NO)c2)c1 [PX117712, N-Hydroxy-3-[3-(3-methoxy-phenylsulfamoyl)-phenyl]-acrylamide]	–	–	–	1100	130	650	–	14	137 °C	–
O=C(/C=C/c1cccc(S(=O)(=O)Nc2ccc(-c3ccccc3)cc2)c1)NO [PX117715, 3-[3-(Biphenyl-4-ylsulfamoyl)-pheny]-N-hydroxy-acrylamide]	–	–	–	1500	290	930	–	10	188 °C	–
O=C(/C=C/c1cccc(S(=O)(=O)Nc2cccc(Br)c2)c1)NO [PX117734, 3-[3-(3-Bromo-phenylsulfamoyl)-phenyl]-N-hydroxy-acrylamide]	–	–	–	2100	79	880	–	8	135.5 to 136.5 °C	–
O=C(/C=C/c1cccc(S(=O)(=O)NC(c2ccccc2)c2ccccc2)c1)NO [PX117773, 3-[3-(Benzhydryl-sulfamoyl)-phenyl]-N-hydroxy-acrylamide]	–	–	–	3400	1200	6200	–	67	180 °C	–
O=C(/C=C/c1cccc(S(=O)(=O)NC(Cc2ccccc2)c2ccccc2)c1)NO (centres unmarked) [PX117774, 3-[3-(1,2-Diphenyl-ethylsulfamoyl)-phenyl]-N-hydroxy-acrylamide]	–	–	–	6400	1000	7000	–	396	150 °C	–
O=C(/C=C/c1cccc(S(=O)(=O)Nc2ccc(OC(F)(F)F)cc2)c1)NO [PX117775, N-Hydroxy-3-[3-(4-trifluoromethoxy-phenylsulfamoyl)-phenyl]-acrylamide]	–	–	–	2100	530	5300	–	16	131 °C	–
COc1ccc(S(=O)(=O)Nc2cccc(/C=C/C(=O)NO)c2)cc1OC [PX117780, 3-[3-(3,4-Dimethoxy-benzenesulfonylamino)-phenyl]-N-hydroxy-acrylamide]	–	–	–	16800	4000	10500	–	125	158 °C	–
O=C(/C=C/c1cccc(NS(=O)(=O)c2ccc(-c3ccccc3)cc2)c1)NO [PX117781, 3-[3-(Biphenyl-4-sulfonylamino)-phenyl]-N-hydroxy-acrylamide]	–	–	–	3400	800	2200	–	58	115 °C	–
COc1ccc(NS(=O)(=O)c2cccc(/C=C/C(=O)NO)c2)cc1OC [PX117782, 3-[3-(3,4-Dimethoxy-phenylsulfamoyl)-phenyl]-N-hydroxy-acrylamide]	–	–	–	2900	350	15600	–	38	191 °C	–
O=C(/C=C/c1cccc(S(=O)(=O)Nc2ccccc2F)c1)NO [PX117787, 3-[3-(2-Fluoro-phenylsulfamoyl)-phenyl]-N-hydroxy-acrylamide]	–	–	–	2600	500	1200	–	67	102 to 103 °C	–
O=C(/C=C/c1cccc(S(=O)(=O)Nc2cccc(F)c2)c1)NO [PX117788, 3-[3-(3-Fluoro-phenylsulfamoyl)-phenyl]-N-hydroxy-acrylamide]	–	–	–	2000	290	1700	–	36	130 to 133 °C	–
O=C(/C=C/c1cccc(S(=O)(=O)Nc2ccc(OC(F)F)cc2)c1)NO [PX117789, 3-[3-(4-Difluoromethoxy-phenylsulfamoyl)-phenyl]-N-hydroxy-acrylamide]	–	–	–	1100	300	800	–	30	91 to 93 °C	–
COc1ccc(C(F)(F)F)cc1NS(=O)(=O)c1cccc(/C=C/C(=O)NO)c1 [PX117791, N-Hydroxy-3-[3-(2-methoxy-5-trifluoromethyl-phenylsulfamoyl)-phenyl]-acrylamide]	–	–	–	3600	1300	6700	–	250	207 °C (dec.)	–
O=C(/C=C/c1ccc(S(=O)(=O)Nc2ccc(-c3ccccc3)cc2)cc1)NO [PX117792, N-Hydroxy-3-[4-(biphenyl-4-ylsulfamoyl)-phenyl]-acrylamide]	–	–	–	1400	430	400	–	48	211 to 211.5 °C	–
O=C(/C=C/c1ccc(NS(=O)(=O)c2ccc(-c3ccccc3)cc2)cc1)NO [PX117793, (E)-N-Hydroxy-3-[4-(4-biphenylsulfonylamino)-phenyl]-2-propenamide]	–	–	–	2000	500	2700	–	50	190 to 191.5 °C	–
COc1ccc(S(=O)(=O)Nc2ccc(/C=C/C(=O)NO)cc2)cc1OC [PX117794, (E)-N-Hydroxy-3-[4-(3,4-dimethoxyphenylsulfonylamino)-phenyl]-2-propenamide]	–	–	–	3300	600	2300	–	24	178.5 to 179 °C	–
O=C(/C=C/c1ccc(S(=O)(=O)Nc2ccc(Br)cc2)cc1)NO [PX117795, N-Hydroxy-3-[4-(4-bromo-phenylsulfamoyl)-phenyl]-acrylamide]	–	–	–	3400	510	1500	–	13	219 to 220.5 °C	–
CCn1c2ccccc2c2cc(NS(=O)(=O)c3cccc(/C=C/C(=O)NO)c3)ccc21 [PX117798]	–	–	–	900	3600	350	–	50	130 to 133 °C	–
